Data: PubChem BioAssay (NCI)
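96-well plates; 48 h exposure; 5 concentrations. Endpoints by linear interpolation between flanking doses. Not reached: highest tested concentration assigned. Definition used: TGI = concentration required for complete inhibition of growth.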

Assays:
Experiment in all cases: NCI tumour cell line growth inhibition, 48 h
DMS 273 small cell lung = test system: DMS 273 small cell lung
EKVX NSCLC = test system: EKVX NSCLC
HOP-92 NSCLC = test system: HOP-92 NSCLC
HT29 colon = test system: HT29 colon
K-562 leukemia = test system: K-562 leukemia
LXFL 529 NSCLC = test system: LXFL 529 NSCLC
NCI-H23 lung = test system: NCI-H23 lung
NCI-H522 lung = test system: NCI-H522 lung
OVCAR-8 ovarian = test system: OVCAR-8 ovarian
SF-539 CNS = test system: SF-539 CNS
SK-OV-3 ovarian = test system: SK-OV-3 ovarian
SNB-78 CNS = test system: SNB-78 CNS
U251 CNS = test system: U251 CNS
UACC-257 melanoma = test system: UACC-257 melanoma
HCT-116 colon = test system: HCT-116 colon
MALME-3M melanoma = test system: MALME-3M melanoma
OVCAR-5 ovarian = test system: OVCAR-5 ovarian
SF-295 CNS = test system: SF-295 CNS
SK-MEL-2 melanoma = test system: SK-MEL-2 melanoma
UO-31 renal = test system: UO-31 renal

Compound	TGI (DMS 273 small cell lung)	TGI (EKVX NSCLC)	TGI (HOP-92 NSCLC)	TGI (HT29 colon)	TGI (K-562 leukemia)	TGI (LXFL 529 NSCLC)	TGI (NCI-H23 lung)	TGI (NCI-H522 lung)	TGI (OVCAR-8 ovarian)	TGI (SF-539 CNS)	TGI (SK-OV-3 ovarian)	TGI (SNB-78 CNS)	TGI (U251 CNS)	TGI (UACC-257 melanoma)	TGI (HCT-116 colon)	TGI (MALME-3M melanoma)	TGI (OVCAR-5 ovarian)	TGI (SF-295 CNS)	TGI (SK-MEL-2 melanoma)	TGI (UO-31 renal)
CC(C)(C)N1C(C(=O)c2ccccc2)C1c1ccccc1 (configuration not stated)	> 100 µM	> 100 µM	> 100 µM	> 100 µM	> 100 µM	> 100 µM	> 100 µM	> 100 µM	> 100 µM	> 100 µM	> 100 µM	> 100 µM	> 100 µM	> 100 µM	–	–	–	–	–	–
C=CC[N+]12CN3CN(CN(C3)C1)C2	–	46.4 µM	46.9 µM	42.8 µM	> 100 µM	–	52.8 µM	34.9 µM	57.6 µM	40.6 µM	> 100 µM	–	> 100 µM	61.7 µM	58.2 µM	45.2 µM	95.5 µM	> 100 µM	> 100 µM	43.7 µM
COc1ccc(C[C@H](N)C(=O)NC2C(CO)OC(n3cnc4c(N(C)C)ncnc43)C2O)cc1 (some centres not stated)	1.51 µM	1.06 µM	0.591 µM	–	1.16 µM	0.305 µM	0.432 µM	–	0.68 µM	–	–	0.758 µM	0.131 µM	1.67 µM	0.293 µM	2.53 µM	42.3 µM	1.57 µM	3.26 µM	7.89 µM
